In PubChem BioAssay AID248 (DTP/NCI, 2004):
Values joined by “and” are separate entries in the source; they are usually repeats but may differ in a detail not shown here. Equal values may be shown once. Inconclusive results and toxic doses are left out.

Test system: L1210 leukemia ip in BDF1 mice, survival T/C
Assay: NCI In Vivo Anticancer Drug Screen. Data for tumor model L1210 Leukemia (intraperitoneal) in B6D2F1 (BDF1) mice
Details: endpoint: mean survival time, higher = longer survival
Procedure, shortened: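 Each compound was tested against a transplantable tumor grown in mice. The endpoint was survival, with treated animals benchmarked against vehicle controls as a simple ratio.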

[1] = dose: 100.0 mg/kg/injection, schedule: Q01DX009 (ip), vehicle: Klucel (hydroxypropylcellulose) (HPC)
[2] = dose: 100.0 mg/kg/injection, schedule: Q04DX003 (ip), vehicle: Klucel (hydroxypropylcellulose) (HPC)
[3] = dose: 200.0 mg/kg/injection, schedule: Q01DX009 (ip), vehicle: Klucel (hydroxypropylcellulose) (HPC)
[4] = dose: 200.0 mg/kg/injection, schedule: Q04DX003 (ip), vehicle: Klucel (hydroxypropylcellulose) (HPC)
[5] = dose: 400.0 mg/kg/injection, schedule: Q01DX009 (ip), vehicle: Klucel (hydroxypropylcellulose) (HPC)
[6] = dose: 400.0 mg/kg/injection, schedule: Q04DX003 (ip), vehicle: Klucel (hydroxypropylcellulose) (HPC)
[7] = dose: 25.0 mg/kg/injection, schedule: Q04DX002 (ip), vehicle: saline with Tween-80
[8] = dose: 50.0 mg/kg/injection, schedule: Q04DX002 (ip), vehicle: saline with Tween-80
[9] = dose: 100.0 mg/kg/injection, schedule: Q04DX002 (ip), vehicle: saline with Tween-80
[10] = dose: 100.0 mg/kg/injection, schedule: Q01DX001 (ip), vehicle: saline
[11] = dose: 200.0 mg/kg/injection, schedule: Q01DX001 (ip), vehicle: saline
[12] = dose: 400.0 mg/kg/injection, schedule: Q01DX001 (ip), vehicle: saline
[13] = dose: 50.0 mg/kg/injection, schedule: Q01DX009 (ip), vehicle: Klucel (hydroxypropylcellulose) (HPC)
[14] = dose: 100.0 mg/kg/injection, schedule: Q04DX003 (ip), vehicle: saline
[15] = dose: 200.0 mg/kg/injection, schedule: Q04DX003 (ip), vehicle: saline
[16] = dose: 400.0 mg/kg/injection, schedule: Q04DX003 (ip), vehicle: saline
[17] = dose: 100.0 mg/kg/injection, schedule: Q01DX001 (ip), vehicle: carboxymethylcellulose (CMC)
[18] = dose: 200.0 mg/kg/injection, schedule: Q01DX001 (ip), vehicle: carboxymethylcellulose (CMC)
[19] = dose: 400.0 mg/kg/injection, schedule: Q01DX001 (ip), vehicle: carboxymethylcellulose (CMC)

In the case of O=C1CCC[C@@H]2[C@H]3CCCN4CCC[C@@H](CN12)[C@@H]34, the T/C (dose: 75.0 mg/kg/injection, schedule: Q01DX001 (ip), vehicle: saline) is reported as 105 % of control and the T/C (dose: 150.0 mg/kg/injection, schedule: Q01DX001 (ip), vehicle: saline) is reported as 96 % of control.
For CCN(CC)CCOC(=O)Cc1ccccc1, the T/C [1] was 94 % of control, the T/C [2] was 97 % of control and the T/C [3] was 104 % of control. The T/C [4] was 100 % of control, the T/C [5] was 105 % of control and the T/C [6] was 100 % of control.
In the case of Oc1c(Cl)cc(Cl)cc1Sc1cc(Cl)cc(Cl)c1O, the T/C (dose: 100.0 mg/kg/injection, schedule: Q04DX002 (ip), vehicle: saline) is reported as 114 % of control, the T/C (dose: 200.0 mg/kg/injection, schedule: Q04DX002 (ip), vehicle: saline) is reported as 100 % of control and the T/C (dose: 400.0 mg/kg/injection, schedule: Q04DX002 (ip), vehicle: saline) is reported as 114 % of control.
In the case of O=NN(CCCl)C(=O)NC1CCC(Br)CC1 (configuration not stated), the T/C (dose: 10.0 mg/kg/injection, schedule: Q01DX001 (ip), vehicle: saline with Tween-80) is reported as 122 % of control, the T/C (dose: 22.0 mg/kg/injection, schedule: Q01DX001 (ip), vehicle: saline with Tween-80) is reported as 150 % of control and the T/C (dose: 33.5 mg/kg/injection, schedule: Q01DX001 (ip), vehicle: saline with Tween-80) is reported as 197 % of control. For the same compound, the T/C (dose: 50.0 mg/kg/injection, schedule: Q01DX001 (ip), vehicle: saline with Tween-80) was 455 % of control, the T/C (dose: 75.0 mg/kg/injection, schedule: Q01DX001 (ip), vehicle: saline with Tween-80) was 455 % of control and the T/C (dose: 112.0 mg/kg/injection, schedule: Q01DX001 (ip), vehicle: saline with Tween-80) was 420 % of control. For the same compound, the T/C (dose: 252.0 mg/kg/injection, schedule: Q01DX001 (ip), vehicle: saline with Tween-80) was 208 % of control.
For O=C(CCl)Nc1ccc([N+](=O)[O-])cc1, the T/C [7] was 103 % of control, the T/C [8] was 93 % of control and the T/C [9] was 97 % of control.
With Nc1nc(=O)n(C2CC(O)C(CO)O2)cc1Br (configuration not stated) the T/C (dose: 20.0 mg/kg/injection, schedule: Q01DX Z (ip), vehicle: carboxymethylcellulose (CMC)) was 95 % of control, the T/C (dose: 40.0 mg/kg/injection, schedule: Q01DX Z (ip), vehicle: carboxymethylcellulose (CMC)) was 101 % of control and the T/C (dose: 50.0 mg/kg/injection, schedule: Q01DX001 (ip), vehicle: saline) was 109 % of control. The T/C (dose: 80.0 mg/kg/injection, schedule: Q01DX Z (ip), vehicle: carboxymethylcellulose (CMC)) was 101 % of control, the T/C [10] was 105 % of control and the T/C (dose: 160.0 mg/kg/injection, schedule: Q01DX Z (ip), vehicle: carboxymethylcellulose (CMC)) was 106 % of control. The T/C [11] was 111 % of control and the T/C [12] was 117 % of control.
With COc1ccc(NC(=O)Nc2cccc([N+](=O)[O-])c2OC)cc1 the T/C [7] was 93 % of control, the T/C [8] was 96 % of control and the T/C [9] was 89 % of control.
For CC(C)(C)CC(C)(C)CC(C)(C)NCCCN, the T/C (dose: 12.5 mg/kg/injection, schedule: Q01DX009 (ip), vehicle: saline with Tween-80) was 102 % of control, the T/C (dose: 25.0 mg/kg/injection, schedule: Q01DX009 (ip), vehicle: saline with Tween-80) was 93 % of control and the T/C (dose: 25.0 mg/kg/injection, schedule: Q04DX003 (ip), vehicle: saline with Tween-80) was 90 % of control. For the same compound, the T/C (dose: 50.0 mg/kg/injection, schedule: Q04DX003 (ip), vehicle: saline with Tween-80) was 97 % of control and the T/C (dose: 100.0 mg/kg/injection, schedule: Q04DX003 (ip), vehicle: saline with Tween-80) was 96 % of control.
In the case of CCCCCCCCCCCCCCCC(S(=O)(=O)CC)S(=O)(=O)CC, the T/C [2] is reported as 93 % of control, the T/C [4] is reported as 97 % of control and the T/C [6] is reported as 87 % of control.
With CCCCCCCCCCCC(=O)O.[Cr] the T/C (dose: 100.0 mg/kg/injection, schedule: Q01DX009 (ip), vehicle: other) was 93 % of control, the T/C (dose: 100.0 mg/kg/injection, schedule: Q04DX003 (ip), vehicle: other) was 97 % of control and the T/C (dose: 200.0 mg/kg/injection, schedule: Q01DX009 (ip), vehicle: other) was 95 % of control. The T/C (dose: 200.0 mg/kg/injection, schedule: Q04DX003 (ip), vehicle: other) was 102 % of control, the T/C (dose: 400.0 mg/kg/injection, schedule: Q01DX009 (ip), vehicle: other) was 92 % of control and the T/C (dose: 400.0 mg/kg/injection, schedule: Q04DX003 (ip), vehicle: other) was 91 % of control.
For CC(C)/C=C(\C#N)C(=O)O, the T/C (dose: 12.5 mg/kg/injection, schedule: Q04DX003 (ip), vehicle: Klucel (hydroxypropylcellulose) (HPC)) was 97 % of control, the T/C (dose: 25.0 mg/kg/injection, schedule: Q01DX009 (ip), vehicle: Klucel (hydroxypropylcellulose) (HPC)) was 95 % of control and the T/C (dose: 25.0 mg/kg/injection, schedule: Q04DX003 (ip), vehicle: Klucel (hydroxypropylcellulose) (HPC)) was 101 % of control. For the same compound, the T/C [13] was 95 % of control and the T/C (dose: 50.0 mg/kg/injection, schedule: Q04DX003 (ip), vehicle: Klucel (hydroxypropylcellulose) (HPC)) was 98 % of control.
In the case of CCOC(=O)c1ccc(NC(=O)Oc2ccc(OC)cc2)cc1, the T/C [1] is reported as 96 % of control, the T/C [3] is reported as 100 % of control and the T/C [5] is reported as 98 % of control.
For CC(=O)OCCNc1ccc([N+](=O)[O-])cc1[N+](=O)[O-], the T/C (dose: 100.0 mg/kg/injection, schedule: Q01DX009 (ip), vehicle: acetone) was 109 % of control, the T/C [14] was 101 % of control and the T/C (dose: 200.0 mg/kg/injection, schedule: Q01DX009 (ip), vehicle: acetone) was 97 % of control. The T/C [15] was 103 % of control, the T/C (dose: 400.0 mg/kg/injection, schedule: Q01DX009 (ip), vehicle: acetone) was 112 % of control and the T/C [16] was 95 % of control.
For C=CC(C)(CC/C=C(\C)CCC=C(C)C)OC(=O)NC(=O)C(Cl)(Cl)Cl (configuration not stated), the T/C [13] was 103 % of control, the T/C (dose: 100.0 mg/kg/injection, schedule: Q01DX001 (ip), vehicle: Klucel (hydroxypropylcellulose) (HPC)) was 111 % of control and the T/C [1] was 100 % of control. For the same compound, the T/C (dose: 200.0 mg/kg/injection, schedule: Q01DX001 (ip), vehicle: Klucel (hydroxypropylcellulose) (HPC)) was 101 % of control, the T/C [3] was 97 % of control and the T/C (dose: 400.0 mg/kg/injection, schedule: Q01DX001 (ip), vehicle: Klucel (hydroxypropylcellulose) (HPC)) was 105 % of control.
With CC(C)N1C(=O)NC(=O)C12CCN(Cc1ccccc1)CC2 the T/C [17] was 101 % of control, the T/C [18] was 98 % of control and the T/C [19] was 95 % of control.
With Cn1nnnc1CCN(N)CCN(N)CCc1nnnn1C the T/C [10] was 103 % of control, the T/C [11] was 92 % of control and the T/C [12] was 95 % of control.
For O=[N+]([O-])c1ccc(N=Nc2ccc3c(c2)-c2ccccc2C3=P(c2ccccc2)(c2ccccc2)c2ccccc2)cc1, the T/C [17] was 108 % of control, the T/C [18] was 98 % of control and the T/C [19] was 93 % of control.
In the case of Cc1ccc(S(=O)(=O)O/C=C2\CCOC2=O)cc1, the T/C (dose: 100.0 mg/kg/injection, schedule: Q04DX002 (ip), vehicle: Klucel (hydroxypropylcellulose) (HPC)) is reported as 105 % of control and the T/C (dose: 200.0 mg/kg/injection, schedule: Q04DX002 (ip), vehicle: Klucel (hydroxypropylcellulose) (HPC)) is reported as 112 % of control.
For O=[N+]([O-])c1ccc(S(=O)(=O)Cl)c(Cl)c1, the T/C [10] was 100 % of control, the T/C [11] was 96 % of control and the T/C [12] was 92 % of control.
In the case of CC(=O)Nc1onc(C)c1N, the T/C (dose: 50.0 mg/kg/injection, schedule: Q01DX009 (ip), vehicle: saline) is reported as 103 % of control, the T/C (dose: 100.0 mg/kg/injection, schedule: Q01DX009 (ip), vehicle: saline) is reported as 98 % of control and the T/C [14] is reported as 94 % of control. The T/C (dose: 200.0 mg/kg/injection, schedule: Q01DX009 (ip), vehicle: saline) was 116 % of control and 88 % of control, the T/C [15] was 94 % of control and the T/C [16] was 92 % of control.
For O=C1c2ccccc2S(=O)(=O)N1CCN1C(=O)c2ccccc2S1(=O)=O, the T/C [2] was 94 % of control, the T/C [4] was 93 % of control and the T/C [6] was 94 % of control.
For O=C(NCCCCCCCCCNC(=O)Nc1ccc(C2=NCCCN2)cc1)Nc1ccc(C2=NCCCN2)cc1, the T/C (dose: 3.75 mg/kg/injection, schedule: Q01DX Z (ip), vehicle: carboxymethylcellulose (CMC)) was 91 % of control, the T/C (dose: 7.5 mg/kg/injection, schedule: Q01DX Z (ip), vehicle: carboxymethylcellulose (CMC)) was 98 % of control and the T/C (dose: 15.0 mg/kg/injection, schedule: Q01DX Z (ip), vehicle: carboxymethylcellulose (CMC)) was 122 % of control.
